These results are taken from patent US12252484B2, “Pyrazolopyridine compounds for the treatment of autoimmune disease” (Hoffmann-La Roche Inc., priority 2018, dated 2025).

A value given as a limit tells only on which side of the number the result lay.

In general, IC50 refers to the concentration that gives 50% inhibition.

This assay deals with T1, human TLR9 (Homo sapiens, UniProt Q9NR96).
T1 sequence (Q9NR96 26-1032): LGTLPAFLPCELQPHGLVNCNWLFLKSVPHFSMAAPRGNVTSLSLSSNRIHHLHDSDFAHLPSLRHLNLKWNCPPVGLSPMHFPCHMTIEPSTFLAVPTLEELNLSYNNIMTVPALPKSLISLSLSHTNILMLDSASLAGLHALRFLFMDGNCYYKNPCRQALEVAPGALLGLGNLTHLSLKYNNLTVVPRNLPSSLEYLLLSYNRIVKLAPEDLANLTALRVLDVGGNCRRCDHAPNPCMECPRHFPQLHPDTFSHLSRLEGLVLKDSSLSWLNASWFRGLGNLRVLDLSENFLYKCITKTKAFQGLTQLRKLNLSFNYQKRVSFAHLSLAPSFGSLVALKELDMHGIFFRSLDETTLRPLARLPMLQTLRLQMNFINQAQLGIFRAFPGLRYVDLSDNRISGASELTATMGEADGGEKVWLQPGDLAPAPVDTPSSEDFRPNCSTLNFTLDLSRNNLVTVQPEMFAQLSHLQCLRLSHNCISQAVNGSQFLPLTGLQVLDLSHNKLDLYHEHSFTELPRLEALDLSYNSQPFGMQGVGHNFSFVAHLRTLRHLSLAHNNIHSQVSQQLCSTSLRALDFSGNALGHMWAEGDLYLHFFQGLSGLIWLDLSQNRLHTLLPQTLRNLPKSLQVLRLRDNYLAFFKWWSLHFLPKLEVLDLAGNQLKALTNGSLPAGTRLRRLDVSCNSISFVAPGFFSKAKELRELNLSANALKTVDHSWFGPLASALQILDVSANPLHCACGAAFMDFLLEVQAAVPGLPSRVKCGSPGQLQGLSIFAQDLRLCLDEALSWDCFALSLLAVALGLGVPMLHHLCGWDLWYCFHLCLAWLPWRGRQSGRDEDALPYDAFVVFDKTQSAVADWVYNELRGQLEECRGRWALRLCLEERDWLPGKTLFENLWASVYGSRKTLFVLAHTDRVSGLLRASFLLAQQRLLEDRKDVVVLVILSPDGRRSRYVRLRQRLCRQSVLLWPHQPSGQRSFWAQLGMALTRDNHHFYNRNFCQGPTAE
Put plainly: HEK293-Blue-hTLR-9 cells assay (SEAP reporter, ODN2006 stimulation). The settings on record: HEK293-Blue-hTLR-9 cells, ODN2006 ligand, 20 hrs incubation; read-out: TLR9 IC50. The class given is cell-based. On the procedure:
The following tests were carried out in order to determine the activity of the compounds of formula (I) in HEK293-Blue-hTLR-7/8/9 cells assay.
HEK293-Blue-hTLR-9 Cells Assay:
A stable HEK293-Blue-hTLR-9 cell line was purchased from InvivoGen (Cat. #: hkb-htlr9, San Diego, California, USA). These cells were originally designed for studying the stimulation of human TLR9 by monitoring the activation of NF-κB. A SEAP (secreted embryonic alkaline phosphatase) reporter gene was placed under the control of the IFN-β minimal promoter fused to five NF-κB and AP-1-binding sites. The SEAP was induced by activating NF-κB and AP-1 via stimulating HEK-Blue hTLR9 cells with TLR9 ligands. Therefore the reporter expression was declined by TLR9 antagonist under the stimulation of a ligand, such as ODN2006 (Cat. #: tlrl-2006-1, Invivogen, San Diego, California, USA), for incubation of 20 hrs. The cell culture supernatant SEAP reporter activity was determined using QUANTI-Blue™ kit (Cat. #: rep-qb1, Invivogen, San Diego, California, USA) at a wavelength of 640 nm, a detection medium that turns purple or blue in the presence of alkaline phosphatase.
HEK293-Blue-hTLR9 cells were incubated at a density of 250,000˜450,000 cells/mL in a volume of 170 μL in a 96-well plate in Dulbecco's Modified Eagle's medium (DMEM) containing 4.5 g/L glucose, 50 U/mL penicillin, […], 2 mM L-glutamine, 10% (v/v) heat-inactivated fetal bovine serum with addition of 20 μL test compound in a serial dilution in the presence of final DMSO at 1% and 10 μL of 20 uM ODN2006 in above DMEM, perform incubation under 37° C. in a CO2 incubator for 20 hrs. Then 20 μL of the supernatant from each well was incubated with 180 μL Quanti-blue substrate solution at 37° C. for 2 hrs and the absorbance was read at 620˜655 nm using a spectrophotometer. The signalling pathway that TLR9 activation leads to downstream NF-κB activation has been widely accepted, and therefore similar reporter assay was modified for evaluating TLR9 antagonist.

Take `C[C@@H]1CN(c2ccc(C#N)n3nccc23)C[C@H](C(=O)Nc2ccc(C(=O)N3CCNCC3)cc2)O1` [Example 42, (2R,6R)-4-(7-cyanopyrazolo[1,5-a]pyridin-4-yl)-6-methyl-N-[4-(piperazine-1-carbonyl)phenyl]morpholine-2-carboxamide]: the half-maximal inhibitory concentration (IC50) was determined as 1.8 µM.
For the compound `C[C@@H]1CN(c2ccc(C#N)n3nccc23)C[C@H](C(=O)NC23CC(CO)(C2)C3)O1` [Example 15, (2R,6R)-4-(7-cyanopyrazolo[1,5-a]pyridin-4-yl)-N-[3-(hydroxymethyl)-1-bicyclo[1.1.1]pentanyl]-6-methyl-morpholine-2-carboxamide], the IC50 is over 100 µM.
Consider `C[C@@H]1CN(c2ccc(C#N)n3nccc23)C[C@H](C(=O)NC2CC3CCCC(C2)N3)O1` (stereo partly drawn) [Example 14, (2R,6R)-N-(9-azabicyclo[3.3.1]nonan-3-yl)-4-(7-cyanopyrazolo[1,5-a]pyridin-4-yl)-6-methyl-morpholine-2-carboxamide], for which the half-maximal inhibitory concentration (IC50) was determined as 1.6 µM.
`C[C@@H]1CN(c2ccc(C#N)n3nccc23)C[C@H](C(=O)NC2(C)CCNCC2)O1` [Example 19, (2R,6R)-4-(7-cyanopyrazolo[1,5-a]pyridin-4-yl)-6-methyl-N-(4-methyl-4-piperidyl)morpholine-2-carboxamide]: the IC50 was 16 µM.
In the case of `C[C@@H]1CN(c2ccc(C#N)n3nccc23)C[C@H](C(=O)NC2CCNCC2)O1` [Example 24, (2R,6R)-4-(7-cyanopyrazolo[1,5-a]pyridin-4-yl)-6-methyl-N-(4-piperidyl)morpholine-2-carboxamide], the IC50 turned out to be 13 µM.
For `C[C@@H]1CN(c2ccc(C#N)n3nccc23)C[C@H](C(=O)N[C@H]2CNC[C@H]2F)O1` [Example 2, (2R,6R)-4-(7-cyanopyrazolo[1,5-a]pyridin-4-yl)-N-[(3S,4R)-4-fluoropyrrolidin-3-yl]-6-methyl-morpholine-2-carboxamide], the IC50 was over 100 µM.
In the case of `C[C@@H]1CN(c2ccc(C#N)n3nccc23)C[C@H](C(=O)NC2CC3CC2CN3)O1` (stereo partly drawn) [Example 36, (2R,6R)-N-(2-azabicyclo[2.2.1]heptan-5-yl)-4-(7-cyanopyrazolo[1,5-a]pyridin-4-yl)-6-methyl-morpholine-2-carboxamide] it was 12 µM; in that of `C[C@@H]1CN(c2ccc(C#N)n3nccc23)C[C@H](C(=O)N2CC(N)C2)O1` [Example 8, 4-[(2R,6R)-2-(3-aminoazetidine-1-carbonyl)-6-methyl-morpholin-4-yl]pyrazolo[1,5a]pyridine-7-carbonitrile], 70 µM; in that of `C[C@H]1C[C@@H](N)CN(c2ccc(C#N)n3nccc23)C1` [Example 43, 4-[(3R,5S)-3-amino-5-methyl-1-piperidyl]pyrazolo[1,5-a]pyridine-7-carbonitrile], 10 µM.
Turning to `C[C@@H]1CN(c2ccc(C#N)n3nccc23)C[C@H](C(=O)NC2CN(C)CC23CC3)O1` (stereo partly drawn) [Example 32, (2R,6R)-4-(7-cyanopyrazolo[1,5-a]pyridin-4-yl)-6-methyl-N-(5-methyl-5-azaspiro[2.4]heptan-7-yl)morpholine-2-carboxamide], the IC50 amounted to 9.7 µM.
In the case of `C[C@@H]1CN(c2ccc(C#N)n3nccc23)C[C@H](C(=O)NC2CC3CCC(C2)N3C)O1` (stereo partly drawn) [Example 33, (2R,6R)-4-(7-cyanopyrazolo[1,5-a]pyridin-4-yl)-6-methyl-N-(8-methyl-8-azabicyclo[3.2.1]octan-3-yl)morpholine-2-carboxamide] it was 7.7 µM; in that of `C[C@@H]1CN(c2ccc(C#N)n3nccc23)C[C@H](C(=O)NCC2CCNC2)O1` (stereo partly drawn) [Example 40, (2R,6R)-4-(7-cyanopyrazolo[1,5-a]pyridin-4-yl)-6-methyl-N-(pyrrolidin-3-ylmethyl)morpholine-2-carboxamide], 48 µM.
For `COCCNC(=O)[C@H]1CN(c2ccc(C#N)n3nccc23)C[C@@H](C)O1` [Example 9, (2R,6R)-4-(7-cyanopyrazolo[1,5-a]pyridin-4-yl)-N-(2-methoxyethyl)-6-methyl-morpholine-2-carboxamide], the half-inhibitory concentration (IC50) is over 100 µM.
In the case of `C[C@@H]1CN(c2ccc(C#N)n3nccc23)C[C@H](C(=O)NC2C3CCC2CNC3)O1` (stereo partly drawn) [Example 26, (2R,6R)-N-(3-azabicyclo[3.2.1]octan-8-yl)-4-(7-cyanopyrazolo[1,5-a]pyridin-4-yl)-6-methyl-morpholine-2-carboxamide] it was 13 µM; in that of `CCC(C)(C)NC(=O)[C@H]1CN(c2ccc(C#N)n3nccc23)C[C@@H](C)O1` [Example 17, (2R,6R)-4-(7-cyanopyrazolo[1,5-a]pyridin-4-yl)-N-(1,1-dimethylpropyl)-6-methyl-morpholine-2-carboxamide], 33 µM.
In the case of `C[C@@H]1CN(c2ccc(C#N)n3nccc23)C[C@H](C(=O)N2CCC3(CCNCC3)CC2)O1` [Example 28, 4-[(2R,6R)-2-(3,9-diazaspiro[5.5]undecane-3-carbonyl)-6-methyl-morpholin-4-yl]pyrazolo[1,5a]pyridine-7-carbonitrile] it was 1.7 µM.
